From patent US6793943B2, “Health food products” (priority 2000, dated 2004)

Assays:
[1] = administration of three kinds of samples for 2 months to groups of 30 persons; assay type: in vivo; conditions: numbers of the persons; administered for 2 months; group of 30 persons
Source text: (a) a sample of cholic acid alone,
(b) a sample of soybean isoflavone glycoside alone, and
were each administered for 2 months to each group containing 30 persons to be tested.

[2] = preliminary administration experiment; assay type: in vivo; conditions: several persons who ingested the substance alone

C[C@H](CCC(=O)O)[C@H]1CC[C@H]2[C@@H]3[C@H](O)C[C@@H]4C[C@H](O)CC[C@]4(C)[C@H]3C[C@H](O)[C@]12C [cholic acid]
Alcoholic beverage tasted good [1]: 8 Persons
Evacuation became easy [1]: 1 Person Persons
Feces amount increased [1]: No Person
No hangover noted [1]: 4 Persons
Significantly recovered from fatigue [1]: No Person
troubles by drinking an alcoholic beverage [2]: ameliorated
